From US20240150365A1 (Hotspot Therapeutics, Inc., priority 2022, published 2024)
Like-named read-outs stand apart in the source and are kept apart here.

Assays:
NF-kB = NF-kB reporter assay in Jurkat cells stimulated with aCD3/aCD28/PMA; type: cell-based; conditions: read-out: NF-kB Reporter Assay IC50
Outline: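 Stimulation used final aCD3 5 μg/mL, aCD28 5 μg/mL and PMA 0.03 μg/mL for 4 hr at 37° C, after 1 hr compound pretreatment of 25,000 serum-starved Jurkat cells per well. One-Glo luminescence gave IC50 values.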

MALT1 = molecular target: T1, MALT1 (Homo sapiens, UniProt Q9UDY8); experiment: MALT-1 Fluorogenic Peptide Cleavage Assay (MALT1 inhibition assay); type: biochemical; conditions: Avi-tagged FL MALT-1, Ac-LRSR-AMC peptide substrate, 30 min pre-incubation, 90 min reaction
T1 construct: Avi-tagged FL MALT-1 (Pharmaron, stored at −70° C.); Avi tag
T1 sequence (Q9UDY8 1-824): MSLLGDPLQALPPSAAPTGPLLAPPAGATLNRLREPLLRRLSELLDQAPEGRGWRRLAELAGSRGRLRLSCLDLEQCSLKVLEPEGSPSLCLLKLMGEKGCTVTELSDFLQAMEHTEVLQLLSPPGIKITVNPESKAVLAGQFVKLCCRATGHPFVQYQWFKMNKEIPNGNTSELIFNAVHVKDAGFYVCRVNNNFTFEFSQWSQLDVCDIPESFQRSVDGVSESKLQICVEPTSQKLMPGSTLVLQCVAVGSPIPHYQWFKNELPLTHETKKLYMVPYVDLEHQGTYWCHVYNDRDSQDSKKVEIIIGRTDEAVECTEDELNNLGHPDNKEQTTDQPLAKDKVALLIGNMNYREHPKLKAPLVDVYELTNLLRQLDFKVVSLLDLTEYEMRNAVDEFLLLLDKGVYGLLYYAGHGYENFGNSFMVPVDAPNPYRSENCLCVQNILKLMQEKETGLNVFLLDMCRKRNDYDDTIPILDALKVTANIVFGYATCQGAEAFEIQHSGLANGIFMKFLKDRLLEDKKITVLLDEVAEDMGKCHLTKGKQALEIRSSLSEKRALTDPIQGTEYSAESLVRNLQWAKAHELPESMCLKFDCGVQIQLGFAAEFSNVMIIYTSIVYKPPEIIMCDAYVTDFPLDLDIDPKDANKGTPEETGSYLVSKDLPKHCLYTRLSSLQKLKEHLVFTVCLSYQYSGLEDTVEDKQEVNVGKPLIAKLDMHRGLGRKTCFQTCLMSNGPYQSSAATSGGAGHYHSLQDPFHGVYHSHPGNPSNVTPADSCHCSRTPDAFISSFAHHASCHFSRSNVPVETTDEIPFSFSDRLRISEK
Outline: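 IC50 from sigmoidal fits of % inhibition, with fluorescence (ex 342, em 441 nm) from AMC released from the quenched LRSR peptide after 90 min at room temperature. Full-length Avi-tagged MALT1 saw compound for 30 min first; final DMSO 2%.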

[1] = Homo sapiens, Jurkat, Jurkat cells, 1 hr compound incubation, aCD3/aCD28/PMA stimulation 4 hr, One-Glo readout
[2] = Jurkat cells, 1 hr compound incubation, aCD3/aCD28/PMA stimulation 4 hr, One-Glo readout

| Compound | IC50 (MALT1) [nM] | IC50 (NF-kB; [1]) [nM] | IC50 (NF-kB; [2]) [nM] | IC50 (NF-kB; Homo sapiens, Jurkat) [nM] |
| --- | --- | --- | --- | --- |
| COC(C)(C)c1ncc(-c2ccc(S(=O)(=O)Nc3cccc4cnn(C)c34)cn2)s1 [Example I-268, 6-(2-(2-methoxypropan-2-yl)thiazol-5-yl)-N-(1-methyl-1H-indazol-7-yl)pyridine-3-sulfonamide] | > 2500 | – | – | < 400 |
| Cn1ncc2cccc(NS(=O)(=O)c3ccc(-c4cnn5c4CCC5)nc3)c21 [Example I-269, 6-(5,6-dihydro-4H-pyrrolo[1,2-b]pyrazol-3-yl)-N-(1-methyl-1H-indazol-7-yl)pyridine-3-sulfonamide] | > 2500 | < 400 | – | – |
| Cc1ncc(-c2ccc(S(=O)(=O)Nc3cccc4cnn(C)c34)cn2)n1C(F)(F)F [Example I-271, 6-(2-methyl-1-(trifluoromethyl)-1H-imidazol-5-yl)-N-(1-methyl-1H-indazol-7-yl)pyridine-3-sulfonamide] | > 2500 | – | – | < 400 |
| Cn1ncc2cccc(NS(=O)(=O)c3ccc(-c4cnn5c4CCCC5)nc3)c21 [Example I-272, N-(1-methyl-1H-indazol-7-yl)-6-(4,5,6,7-tetrahydropyrazolo[1,5-a]pyridin-3-yl)pyridine-3-sulfonamide] | > 2500 | < 400 | – | – |
| Cc1c(-c2ccc(S(=O)(=O)Nc3cccc4cnn(C)c34)cn2)cnn1C1COC1 [Example I-274] | > 2500 | < 400 | – | – |
| Cn1ncc2cccc(NS(=O)(=O)c3ccc(-n4cc(C(C)(C)C)cn4)nc3)c21 [Example I-276, 6-(4-tert-butylpyrazol-1-yl)-N-(1-methylindazol-7-yl)pyridine-3-sulfonamide] | > 2500 | < 400 | – | – |
| COc1ccc2cnn(C)c2c1NS(=O)(=O)c1ccc(-n2cc(C(C)(C)O)cn2)nc1 [Example I-278, 6-(4-(2-hydroxypropan-2-yl)-1H-pyrazol-1-yl)-N-(6-methoxy-1-methyl-1H-indazol-7-yl)pyridine-3-sulfonamide] | > 2500 | > 2500 | – | – |
| Cn1ncc2cccc(NS(=O)(=O)c3ccc(-n4cc(CO)cn4)nc3)c21 [Example I-279] | > 2500 | < 400 | – | – |
| COc1ccc2cnn(C)c2c1NS(=O)(=O)c1ccc(-n2cc(C(C)O)cn2)nc1 (stereo not shown) [Example I-281, 6-(4-(1-Hydroxyethyl)-1H-Pyrazol-1-yl)-N-(6-Methoxy-1-Methyl-1H-Indazol-7-yl)Pyridine-3-Sulfonamide] | 1000 to 2500 | – | < 400 | – |
| CC(O)c1cnn(-c2ccc(S(=O)(=O)Nc3cccc4cnn(C)c34)cn2)c1 (stereo not shown) [Example I-282] | > 2500 | 400 to 1000 | – | – |
| COc1ccc2cnn(C)c2c1NS(=O)(=O)c1ccc(-n2cnc(C(F)(F)F)c2)nc1 [Example I-286, N-(6-methoxy-1-methylindazol-7-yl)-6-[4-(trifluoromethyl)imidazol-1-yl]pyridine-3-sulfonamide] | < 400 | < 400 | – | – |
| [2H]C([2H])([2H])n1ncc2cnc(OC)c(NS(=O)(=O)c3ccc(-n4cc(C(F)(F)F)cn4)nc3)c21 [Example I-290, N-(6-methoxy-1-(methyl-d3)-1H-pyrazolo[4,3-c]pyridin-7-yl)-6-(4-(trifluoromethyl)-1H-pyrazol-1-yl)pyridine-3-sulfonamide] | < 400 | < 400 | – | – |
| [2H]C([2H])([2H])n1ncc2cnc(OC)c(N(C)S(=O)(=O)c3ccc(-n4cc(C(F)(F)F)cn4)nc3)c21 [Example I-291, N-(6-methoxy-1-(methyl-d3)-1H-pyrazolo[4,3-c]pyridin-7-yl)-N-methyl-6-(4-(trifluoromethyl)-1H-pyrazol-1-yl)pyridine-3-sulfonamide] | < 400 | < 400 | – | – |
| O=S(=O)(c1ccc(-n2cc(C(F)(F)F)cn2)nc1)N1CCCn2ncc3cccc1c32 [Example I-292, 1-((6-(4-(trifluoromethyl)-1H-pyrazol-1-yl)pyridin-3-yl)sulfonyl)-1,2,3,4-tetrahydro-[1,4]diazepino[3,2,1-hi]indazole] | > 2500 | 400 to 1000 | – | – |
| COc1ccc2[nH]nc(C)c2c1NS(=O)(=O)c1ccc(-c2cnn3c2CCC3)nc1 [Example I-295] | > 2500 | < 400 | – | – |
| C=Cn1ncc2cccc(NS(=O)(=O)c3ccc(-n4cc(C(F)(F)F)cn4)nc3)c21 [Example I-296, 6-(4-(trifluoromethyl)-1H-pyrazol-1-yl)-N-(1-vinyl-1H-indazol-7-yl)pyridine-3-sulfonamide] | 1000 to 2500 | < 400 | – | – |
| C=Cn1cc2cccc(NS(=O)(=O)c3ccc(-n4cc(C(F)(F)F)cn4)nc3)c2n1 [Example I-297] | > 2500 | > 2500 | – | – |

Now from value to compound, other results behind:

| IC50 (MALT1) [nM] | IC50 (NF-kB; [1]) [nM] | IC50 (NF-kB; [2]) [nM] | Compound | IC50 (NF-kB; Homo sapiens, Jurkat) [nM] |
| --- | --- | --- | --- | --- |
| > 2500 | < 400 | – | Cn1ncc2cccc(NS(=O)(=O)c3ccc(-c4cnn5c4COCC5)nc3)c21 [Example I-270, 6-(6,7-dihydro-4H-pyrazolo[5,1-c][1,4]oxazin-3-yl)-N-(1-methyl-1H-indazol-7-yl)pyridine-3-sulfonamide] | – |
| < 400 | 400 to 1000 | – | COc1ccc2c(F)nn(C)c2c1NS(=O)(=O)c1ccc(-n2cc(C(F)(F)F)cn2)nc1 [Example I-273, N-(3-fluoro-6-methoxy-1-methyl-1H-indazol-7-yl)-6-(4-(trifluoromethyl)-1H-pyrazol-1-yl)pyridine-3-sulfonamide] | – |
| > 2500 | 400 to 1000 | – | Cc1nn(C2COC2)cc1-c1ccc(S(=O)(=O)Nc2cccc3cnn(C)c23)cn1 [Example I-275] | – |
| > 2500 | 400 to 1000 | – | Cn1ncc2cccc(NS(=O)(=O)c3ccc(-n4cc(C(C)(C)O)cn4)nc3)c21 [Example I-277] | – |
| 400 to 1000 | < 400 | – | COc1ccc2cnn(C)c2c1NS(=O)(=O)c1ccc(-n2cc(C(C)O)cn2)nc1 (stereo not shown) [Example I-280, 6-(4-(1-Hydroxyethyl)-1H-Pyrazol-1-yl)-N-(6-Methoxy-1-Methyl-1H-Indazol-7-yl)Pyridine-3-Sulfonamide] | – |
| > 2500 | – | < 400 | CC(O)c1cnn(-c2ccc(S(=O)(=O)Nc3cccc4cnn(C)c34)cn2)c1 (stereo not shown) [Example I-283] | – |
| 400 to 1000 | < 400 | – | COc1ccc2cnn(C)c2c1NS(=O)(=O)c1ccc(-n2cc(CO)cn2)nc1 [Example I-284, 6-[4-(hydroxymethyl)pyrazol-1-yl]-N-(6-methoxy-1-methylindazol-7-yl)pyridine-3-sulfonamide] | – |
| 400 to 1000 | < 400 | – | COc1ccc2cnn(C)c2c1NS(=O)(=O)c1ccc(-n2cc(C(C)(C)C)cn2)nc1 [Example I-285, 6-(4-tert-butylpyrazol-1-yl)-N-(6-methoxy-1-methylindazol-7-yl)pyridine-3-sulfonamide] | – |
| 1000 to 2500 | < 400 | – | COc1ccc2cnn(C)c2c1NS(=O)(=O)c1ccc(-c2cnn3c2CCC3)nc1 [Example I-287] | – |
| > 2500 | < 400 | – | Cc1n[nH]c2cccc(NS(=O)(=O)c3ccc(-c4cnn5c4CCC5)nc3)c12 [Example I-288] | – |
| > 2500 | 400 to 1000 | – | COc1ncc2cnn(C)c2c1NS(=O)(=O)c1ccc(-c2cnn3c2CCC3)nc1 [Example I-289] | – |
| > 2500 | 400 to 1000 | – | O=S(=O)(c1ccc(-n2cc(C(F)(F)F)cn2)nc1)N1CCCCn2ncc3cccc1c32 [Example I-293, 1-((6-(4-(trifluoromethyl)-1H-pyrazol-1-yl)pyridin-3-yl)sulfonyl)-2,3,4,5-tetrahydro-1H-[1,4]diazocino[3,2,1-hi]indazole] | – |
| > 2500 | 1000 to 2500 | – | O=S(=O)(c1ccc(-n2cc(C(F)(F)F)cn2)nc1)N1CCn2ncc3cccc1c32 [Example I-294, 1-((6-(4-(trifluoromethyl)-1H-pyrazol-1-yl)pyridin-3-yl)sulfonyl)-2,3-dihydro-1H-pyrazolo[1,5,4-de]quinoxaline] | – |
| > 2500 | < 400 | – | Cn1ncc2cccc(NS(=O)(=O)c3ccc(-n4nc(C(F)(F)F)c5c4CCOC5)nc3)c21 [Example I-298] | – |
| > 2500 | > 2500 | – | COc1ncc2cnn(C)c2c1NS(=O)(=O)c1ccc(-c2cnn3c2OCCC3)nc1 [Example I-299] | – |
